Patent US20240000950A1, “THERAPEUTIC CURE-PRO COMPOUNDS FOR TARGETED DEGRADATION OF BET DOMAIN PROTEINS, AND METHODS OF MAKING AND USING THEM” (CORNELL UNIVERSITY, priority 2020, published 2024)

What was measured:
SLC19A1 = experiment: Suppression of the c-MYC downstream target gene SLC19A1, RT-PCR in HeLa cells; type: cell-based, Human; conditions: 24 h
Protocol: The suppression of the expression of the downstream c-MYC target, SLC19A1, was measured by RT-PCR using Power SYBR® Green Cells-to-Ct™ Kit (Life Technologies). Adherent cells were plated on 96 well plates at 5,000 cells per well were treated for 24 h with monomer compounds and compounds capable of reversible interactions (1 nM-100 μM). Cells were subsequently washed in ice-cold PBS processed according to the manufacturer's instructions. Quantitative real-time PCR was performed using a ViiA™ 7 Real-time PCR System (Applied Biosystems, Foster City, CA, USA). GAPDH and ACTB served as internal controls. The primers used were (5′-3′): GAPDH-F: AGCCACATCGCTCAGACAC (SEQ ID NO:9), GAPDH-R: GCCCAATACGACCAAATCC (SEQ ID NO:10), ACTB-F: CCAACCGCGAGAAGATGA (SEQ ID NO:11), ACTB-R: […] (SEQ ID NO:12), SLC19A1-F: […] (SEQ ID NO:13), SLC19A1-R: […] (SEQ ID NO:14).
HeLa cells (1×104) were treated for 24 hours in 96 well plates with the compounds solubilized in DMSO. Compounds were added at 10 μM each and RNA expression measured by the Cells-to Ct method described above (Thermofisher).

BRD4 [1] = molecular target: T1, BRD4 (Homo sapiens, UniProt O60885); experiment: CURE-PRO-mediated BRD4 degradation in HeLa cells, Western blot; type: cell-based; set-up: endogenous in cells; host or cells: HeLa; conditions: 24 h
Protocol: (§1) All cell lines were purchased from ATCC or DSMZ and grown at 37° C. with 5% C02. Human HeLa cells were cultured in complete growth medium (Dulbecco's modified Eagle's medium (DMEM) supplemented with 10% FBS); MCF7 cells were cultured in complete growth medium (Dulbecco's modified Eagle's medium (DMEM) supplemented with 10% FBS and 0.01 mg/ml human recombinant insulin (Sigma Aldrich); Namalwa and MOLM-13 cells were cultured in complete growth medium (RPMI 1640 medium supplemented with 10% FBS); MV-4-11 were cultured in complete growth medium (Iscove's Modified Dulbecco's medium, supplemented with 10% FBS); HCT116 cells were cultured in complete growth medium (McCoy's 5a Medium supplemented with 10% FBS). For cellular degradation of BRD4 studies, cells were seeded in a 12-well plate at 70-80% confluency, allowed to attach overnight, and incubated with the indicated compounds for the indicated time. When indicated, a 15-minute pretreatment with 10 μM pomalidomide, 10 μM VHL298, 10 μM Nutlin3a, 1 μM MG-132 or 1 μM Carfilzomib was performed before the addition of CURE-PROs. For washout studies, after CURE-PRO treatment, media was aspirated and incubated with complete medium for the indicated time before lysis.
(§2) Anti-BRD4 (13440, 1:1,000 dilution for Western Blot and 1:25 dilution for ProteinSimple); Anti-BRD2 (5848 1:1,000 dilution for Western Blot and 1:25 dilution for ProteinSimple); β-Actin (3700, 1:2,000 dilution for Western Blot), β-Actin (4970, 1:50 dilution for ProteinSimple) anti-mouse IgG-HRP, and anti-rabbit IgG-HRP antibodies were purchased Cell Signaling Technology. Anti-GAPDH (600-401-A33, 1:100 dilution for ProteinSimple) was purchased from Rockland Immunochemicals, Inc. Anti-BRD3 (sc-81202, 1:200 dilution for Western Blot) was purchased from Santa Cruz Biotechnology.
HeLa, MCF7, or HCT116 cells (2.5-3×10^6) were treated for 24 hours with the indicated compounds solubilized in DMSO. The cells were washed in ice-cold PBS and were then lysed in RIPA lysis buffer (150 mM NaCl, 5 mM EDTA, 1% NP-40, 0.5% sodium deoxycholate, 0.1% SDS, 50 mM Tris, pH 8.0) with Roche protease inhibitor complete cocktail and phosphatase inhibitors (10 mM sodium fluoride, 10 mM sodium pyrophosphate, 1 mM sodium orthovanadate and 20 mM β-glycerophosphate). The total protein concentrations were determined by Bradford Protein Assay and 10-20 μg of protein was loaded onto 4-15% Tris-Glycine gradient gels (Biorad). After standard gel electrophoresis, the separated proteins were transferred to PVDF membrane by wet transfer. The immunoblots were then blocked for 1 hour in 5% skim milk in TBST or 5% BSA in TBST, according to manufacturer's instructions, before an overnight incubation at 4° C. with indicated antibodies and membranes. Membranes were then incubated with the appropriate horseradish peroxidase-conjugated secondary antibodies (1:5,000 dilution) for 1 h at room temperature and the bands were visualized using the Clarity Max Western ECL Substrate (Biorad) and the ChemiDoc Imaging System (Biorad). Signal was detected with ECL Western Blotting Substrate (Pierce) and X-ray film processed with a Konica SRX-101 X-ray film processor or captured by Bio-Rad's Chemidoc Imaging system.
HeLa cells (2.5×10^6) were treated for 24 hours with the sample compounds solubilized in DMSO. Compounds were added at 1-10 μM each. Standardized protein samples were electrophoresed and imaged as described in the immunoblotting description above. FIGS. 6-18 depicts the CURE-PRO-mediated BRD4 degradation for BRD monomers (JQ1 derivatives comprising of catechol linkers), and CRBN ligands, 8048 and 8049 (pomalidomide derivatives comprising boronic acid linkers) combined in a 1:1 ratio.
HeLa cells (2.5×10^6) were treated for 24 hours with the compounds solubilized in DMSO. The compounds were added at 10 μM each. Standardized protein samples were electrophoresed and imaged as described in the immunoblotting section above. […]

BRD4 [2] = molecular target: T1, BRD4; experiment: CURE-PRO-mediated BRD4 degradation in HeLa cells, WES capillary electrophoresis (ProteinSimple); type: cell-based; set-up: endogenous in cells; host or cells: HeLa; conditions: for BRD4 degradation: 24 h, co-dosed with CRBN ligand 8047, 100 nM-10 μM each
Protocol: as §1, §2
WES Simple analysis was performed on WES system (ProteinSimple-Biotechne) according to the manufacturer's instructions. Total protein concentrations of cell lysates were determined by the Pierce BCA kit (Thermo Fisher). 3 μL of 0.3 μg/uL of the protein lysate was loaded onto a 12- to 230-kDa WES assay plate (ProteinSimple) where 300 nL sample was withdrawn through a capillary, subjected to electrophoretic separation of proteins by size, and followed by the simultaneous, HRP-based detection of proteins using the Anti-Rabbit Detection Module (Proteinsimple: #DM-001). The electropherograms were checked then the automatic peak detection was manually corrected if it was required.
HeLa cells (2.5×10^6) were treated for 4-24 hours with the compounds solubilized in DMSO. After 4 hours, indicated points were washed and cells were left in full growth media. Compounds were added at 10 μM each. […]

BRD4 [3] = molecular target: T1, BRD4; experiment: Summary of E3 ligase directed degradation of BRD4, estimated from Western Blot or WES (Tables 1-6); type: cell-based; set-up: endogenous in cells; host or cells: HeLa, MCF7 or HCT116; conditions: for Degradation of BRD4, combination with CRBN ligand [drawing 421]: CRBN ligand drawn as drawing 421 (by the text apparently 8047); for Degradation of BRD4, combination with CRBN ligand [drawing 422]: CRBN ligand drawn as drawing 422 (by the text apparently 8066)
Outline: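 HeLa, MCF7 or HCT116 cells treated 24 h with compounds in DMSO, lysed in RIPA buffer; BRD4 levels read by Western blot (ECL detection) or capillary WES with HRP detection. Check mark denotes 30% to 70% or higher protein degradation.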

BRD4 [4] = molecular target: T1, BRD4; experiment: BRD protein family degradation in HCT116 cells with MDM2 ligands, Western blot: BRD4; type: cell-based; set-up: endogenous in cells; host or cells: HeLa, MCF7 or HCT116; conditions: 24 h, with MDM2 ligands 8310 / 8312
Protocol: as §1, with “When indicated, a 15-minute pretreatment with 10 μM pomalidomide, 10 μM VHL298, 10 μM Nutlin3a, 1 μM MG-132 or 1 μM Carfilzomib was performed before the addition of CURE-PROs. For washout studies, after CURE-PRO treatment, media was aspirated and incubated with complete medium for the indicated time before lysis.” left out
HeLa, MCF7, or HCT116 cells (2.5-3×10^6) were treated for 24 hours with the indicated compounds solubilized in DMSO. […] The total protein concentrations were determined by Bradford Protein Assay and 10-20 μg of protein was loaded onto 4-15% Tris-Glycine gradient gels (Biorad). […] Signal was detected with ECL Western Blotting Substrate (Pierce) and X-ray film processed with a Konica SRX-101 X-ray film processor or captured by Bio-Rad's Chemidoc Imaging system. […]

`Cc1sc2c(c1C)C(c1ccc(Cl)cc1)=N[C@@H](CC(=O)Nc1ccc(OCCOCCOCCOCCNc3cccc4c3C(=O)N(C3CCC(=O)NC3=O)C4=O)cc1)c1nnc(C)n1-2` (stereo partly shown) [ARV-825, reference compound] was tested. Which “suppression of SLC19A1 expression” value (SLC19A1; 10 μM, single agent) did it give?
The value was “Complete suppression of SLC19A1 was evident”.

Which results are given for `CCNC(=O)C[C@@H]1N=C(c2ccc(Sc3cccc(B(O)O)c3)cc2)c2cc(OC)ccc2-n2c(C)nnc21` [BRD-E52, (3-((4-((4S)-4-(2-(ethylamino)-2-oxoethyl)-8-methoxy-1-methyl-4H-benzo[f][1,2,4]triazolo[4,3-a][1,4]diazepin-6-yl)phenyl)thio)phenyl)boronic acid]?
BRD4 degradation with pomalidomide and the BRD ligand (no 8047) (BRD4 [1]; 10 μM): failed to induce BRD4 degradation; BRD4 degradation after preincubation with pomalidomide (BRD4 [1]; 10 μM, 1:1 with CRBN ligand 8047, pomalidomide preincubated 15 min at equimolar concentration): inhibition of CURE-PRO-mediated BRD4 degradation; BRD4 degradation, time dependence and washout (BRD4 [2]; 4-24 h, 10 μM each, co-dosed with CRBN ligand 8047, washed after 4 h): marked BRD4 degradation after 4 h with sustained degradation for up to 8 h after drugs are washed out; BRD4 degradation (BRD4 [2]): marked BRD4 degradation; Degradation of BRD4, combination with CRBN ligand [drawing 421] (BRD4 [3]; Table 1): ✓ (A black check mark indicates efficacy of 30% to 70% or higher protein degradation); Degradation of BRD4, combination with CRBN ligand [drawing 422] (BRD4 [3]; Table 1): ✓ (A black check mark indicates efficacy of 30% to 70% or higher protein degradation)

`CCNC(=O)C[C@@H]1N=C(c2ccc(Sc3ccccc3)cc2)c2cc(OC)ccc2-n2c(C)nnc21` [BRD-E52C, N-ethyl-2-((4S)-8-methoxy-1-methyl-6-(4-(phenylthio)phenyl)-4H-benzo[f][1,2,4]triazolo[4,3-a][1,4]diazepin-4-yl)acetamide] was tested. Which BRD4 degradation (BRD4 [2]) did it give?
Its BRD4 degradation is “failed to induce degradation even at 10 μM”.

What does the source list for `CCNC(=O)C[C@@H]1N=C(c2ccc(Cl)cc2)c2cc(OCCCCCCNC(=O)c3ccc(B(O)O)cc3)ccc2-n2c(C)nnc21` [BRD-E79, (4-((6-(((4S)-6-(4-chlorophenyl)-4-(2-(ethylamino)-2-oxoethyl)-1-methyl-4H-benzo[f][1,2,4]triazolo[4,3-a][1,4]diazepin-8-yl)oxy)hexyl)carbamoyl)phenyl)boronic acid]?
BRD4 degradation (BRD4 [1]; BRD ligand (monomer) alone): no change in expression is observed; Degradation of BRD4, combination with CRBN ligand [drawing 421] (BRD4 [3]; Table 1): ✓ (A black check mark indicates efficacy of 30% to 70% or higher protein degradation); Degradation of BRD4, combination with CRBN ligand [drawing 422] (BRD4 [3]; Table 1): ✓ (A black check mark indicates efficacy of 30% to 70% or higher protein degradation); Degradation of BRD4, combination with CRBN ligand [drawing 397] (BRD4 [3]; Table 1, aromatic 1,2-diol- or hindered cis-1,2-diol-containing CRBN ligand drawn as drawing 397 (by the text apparently 8046)): ✓ (A black check mark indicates efficacy of 30% to 70% or higher protein degradation); Degradation of BRD4, combination with MDM2 ligand [drawing 430] (BRD4 [3]; Table 2, aromatic 1,2-diol-containing MDM2 ligand drawn as drawing 430 (by the text apparently 8313)): ✓ (A black check mark indicates efficacy of 30% to 70% or higher protein degradation)

How did the “suppression of SLC19A1 expression” value (SLC19A1; 10 μM each, with MDM2 ligand 8310) turn out when `CCNC(=O)C[C@@H]1N=C(c2ccc(Cl)cc2)c2cc(OCCOCCNC(=O)c3cccc(O)c3O)ccc2-n2c(C)nnc21` [BRD-N39, N-(2-(2-(((4S)-6-(4-chlorophenyl)-4-(2-(ethylamino)-2-oxoethyl)-1-methyl-4H-benzo[f][1,2,4]triazolo[4,3-a][1,4]diazepin-8-yl)oxy)ethoxy)ethyl)-2,3-dihydroxybenzamide] was run?
Its value is “a rightward shift in the curve and an increase in the Ct values”.

What about the “suppression of SLC19A1 expression” value (SLC19A1; 10 μM each, with MDM2 ligand 8312) of the same compound?
The value was “Complete suppression of SLC19A1 was evident”.

What about the “selectivity of degradation within the BRD protein family” value (BRD4 [4]) of the same compound?
Its value is “some selectivity for BRD4 over BRD2 and BRD3”.

And the “Degradation of BRD4, combination with CRBN ligand [drawing 457]” value (BRD4 [3]; Table 4, aryl-boronic acid-containing CRBN ligand drawn as drawing 457 (by the text apparently 8048))?
The value was “✓ (A black check mark indicates efficacy of 30% to 70% or higher protein degradation)”.

And the “Degradation of BRD4, combination with MDM2 ligand [drawing 463]” value (BRD4 [3]; Table 5, aryl-boronic acid-containing MDM2 ligand drawn as drawing 463 (apparently 8310))?
The value was “✓ (A black check mark indicates efficacy of 30% to 70% or higher protein degradation)”.

And the “Degradation of BRD4, combination with MDM2 ligand [drawing 464]” value (BRD4 [3]; Table 5, aryl-boronic acid-containing MDM2 ligand drawn as drawing 464 (apparently 8312))?
The value was “✓ (A black check mark indicates efficacy of 30% to 70% or higher protein degradation)”.
